Patent US12691234B2, “Methods employing gaseous nitric oxide for inhibiting tumor growth” (Beyond Air, Inc., priority 2019, dated 2026)

What was measured:
CT26 challenge tumor = assay: Challenge assay in CT26 tumor-bearing mice; assay type: in vivo, mouse
Procedure: Challenge tumor inoculation: Up to 21 days after gas treatment was applied to the primary tumor, the appropriate cancer cell suspensions were prepared as described herein and inoculation of cells was repeated on the contralateral flank of the mice. Administration was performed as soon as possible following cell suspension preparation and after manual shaking prior to withdrawal of the cell suspension.
The percentage of challenge tumor take was monitored 2-3 times a week by taking a look at the inoculated site and touching this area to look for small tumors that are not yet visible. Naïve mice inoculated with tumor cells for the first time served as an internal control.
Mixing of cells was performed immediately before injection to minimize leukocyte interactions within the syringe. Mice were observed 2-3 times a week and tumor development was determined by caliper measurements of tumor dimensions as described herein. Splenocytes were extracted from a CT26 tumor-bearing mouse, which was previously treated with 25,000 ppm NO for two 15-minute courses. This mouse was re-inoculated with CT26 cancer cells 12 days post treatment. […] Tumor take of visible outgrowths was monitored 2 to 3 times per week by taking a look at the inoculated site and touching this area to look for small tumors that are not yet visible Naïve mice inoculated s.c. with 500,000 CT26 served as the control group. […]

4T1 cells = assay: Third inoculation with 4T1 breast cancer cells in CT26 gNO-immunized mouse; assay type: in vivo, Balb/c mouse; conditions: mouse treated with 25,000 ppm NO twice 15 minutes; 4T1 inoculated 30 days post second inoculation
Procedure: Balb/c mouse was inoculated with 500,000 CT26 cells to the right flank. CT26 tumor was treated with 25,000 ppm NO for 15 minutes at a flow rate of 0.25 LPM. Seven days post gas treatment, this mouse was treated once again using the same protocol. Twelve days post the first NO treatment, this mouse was re-inoculated with 500,000 CT26 cells to the left flank. A third inoculation of cancer cells was performed 30 days post the second cell inoculation, using mouse breast cancer cells, was performed as well and the growth of a third inoculation of breast cancer cells, 4T1 cells. Forty-four days post challenge assay start (second inoculation), this mouse was sacrificed, and his spleen was harvested and preserved in RPMI-based media at 4° c. until processing of it. The spleen was processed into a sterile 35 mm culture dish containing 5 ml of RPMI-based media. Any extra connective tissues or fat was trimmed from the spleen. The flat end of a plunger was used to mince the spleen by crushing the spleen to release the splenocytes. A 70 μm strainer was primed by passing 1 ml of PBS through it and placed on a sterile 50 mL conical tube. The pellet was collected and transferred through the strainer via a 5 mL serological pipette. The strainer was washed with 3 mL of RPMI-based media. Tube will be centrifuged at 300×g for 10 minutes. […]

CT-26 tumor = assay: Local gNO administration to CT26 tumor-bearing mice, primary tumor; assay type: in vivo, Balb/c mouse
Procedure: Test article treatment: Mice were first anesthetized by an intraperitoneal (i.p) injection of 100 mg/kg ketamine and 20 mg/kg xylazine hydrochloride solution. After 10 minutes, tumor-bearing mice were treated with the indicated dose of gNO.
In all protocols, the gas was delivered from NO in N2 cylinders. The outlet pressure was set to 2-3.5 bar using a pressure regulator that was connected directly to the cylinder.
In protocols that involve administration by needle injection, a silicone hose was connected directly to the pressure regulator on one end and to a manual or digital MFC on the other end. The flow was adjusted to 0.05 LPM-0.25 LPM. An additional silicone hose was connected to the flow controller as well as to a 23 G hypodermic needle. The needle was inserted horizontally into the center of each tumor.
Mice were inoculated subcutaneously with 5×10^5 CT-26 cells suspended in 100 μL Hank's Balanced Salt Solution (HBSS) into the low lateral side of the back. Local tumor growth was determined by measuring two mutually orthogonal tumor diameters with a caliper. The volume of the tumor was calculated using the formula: Vol=D1×D2×D2/2, where D1, D2 are two mutually orthogonal tumor diameters.
Air-1 is a female Balb/c mouse that was treated twice. On day 0 the tumor volume was 64.85 mm^3. […] This was followed by air administration for 4 minutes administered to the outer layer of the tumorusing a cap, such as shown in FIG. 11C.
NO-1 is a female Balb/c mouse and was treated once. […] Then, the skin was removed from the tumor, and the tumor was re-exposed to gNO via a perforated flask filled with gNO using the same parameters.
NO-2 is a male Balb/c mouse and was treated 3 times. On day 0 the tumor volume was 38.51 mm^3. Day 0—gNO at 50,000 ppm was administered for 3.8 minutes at a flow rate of 0.9 using a cap. Day 5: gNO at 10,000 ppm was administered for 30 minutes using a cap. Then, gNO was delivered intra-tumorally by a 23 G needle such as shown in FIG. 11B at 0.3 LPM for another 10 minutes, using an intra-tumoral channel. The tip of the needle was directed at the outside area. Day 11: gNO at 10,000 ppm was delivered to the tumor for 5 minutes and at a flow rate of 0.3 LPM, using a 23 G needle and an intra-tumoral channel.
In an additional set of experiments, aluminum disposable gas cylinders were used. A flow meter was connected directly to the cylinder, to which a gas delivery tubing was connected. The tumor was inserted into a small flask trough a 1 cm hole and a plastic holder. A small hole at the bottom of the flask enabled to lower the pressure inside the flask. […]

[N]=O [gNO, nitric oxide]
rejection of secondary CT26 tumor cell inoculation (CT26 challenge tumor; 25,000 ppm 30 minutes, 50,000 ppm 10 minutes or 200,000 ppm 2-35 seconds, end of follow-up): all NO-treated mice rejected a secondary CT26 tumor cell inoculation
tumor development after CT26 re-inoculation (CT26 challenge tumor; 25,000 ppm NO two 15-minute courses, re-inoculated 12 days post treatment, 44 days after challenge): no signs of tumor development were detected
growth of a third inoculation of breast cancer cells (4T1 cells): inhibited
tumor in photographs after treatment (CT-26 tumor; 10,000 ppm gNO in flask, 0.9 LPM, 20 minutes, up to 14 days post treatment): the tumor was destructed
mice cured (CT-26 tumor; 25,000 ppm gNO intra-tumoral, 15 minutes, 0.25 LPM, repeated a week later, 44 days post the first treatment): 50%
tumor 9 days after treatment (CT-26 tumor; 200,000 ppm gNO for 2 seconds, 0.01 LPM): the tumor disappeared
size of air-treated tumor relative to gNO-treated tumors (CT-26 tumor; mice NO-1 and NO-2, 10,000-50,000 ppm gNO, 12 days post treatment 1): more than times bigger
